Several values for one entry are separate records, joined by “and”; a condition that tells them apart may be missing. Identical values can stand only once.
Assays:
[1] = molecular target: T1, PctC-LBDF147Y (Pseudomonas aeruginosa, UniProt Q9HW93, F147Y); assay: biochemical; assay type: binding; conditions: 700 μM DPD/AI-2 into 70 μM PctC-LBD F147Y
T1 construct: the dCACHE-type LBDs of PctB and PctC; His6 (N, cleaved yes); made in house; host or cells: E. coli BL21(DE3) (pET-28a derivative)

[2] = molecular target: T2, PctA-LBD D173A (Pseudomonas aeruginosa, UniProt G3XD24, D173A); assay: biochemical; assay type: binding; conditions: PctA-LBD D173A 70 μM; DPD/AI-2 700 μM
T2 construct: Amino acids 30-278 and 36-360 of PctA and TlpQ, respectively; His6 (N, cleaved yes); made in house; host or cells: E. coli BL21(DE3) (pET-28a derivative)

[3] = molecular target: T3, PctA (Pseudomonas aeruginosa, UniProt G3XD24); assay: in vitro methylation of PctA by CheR1 (LC-MS/MS); assay type: biochemical, P. aeruginosa; conditions: for Methylation level (%) of PctA at E381: CheR1, 10 μM SAM, 1 h, 30 °C; for Methylation level (%) of PctA, Fig. S5a / Methylation level (%) of PctA, Fig. S5b: site not given (Supplementary Fig. 5: E395 and E614)
T3 construct: the membrane fractions containing full-length PctA, KinD or rpHK1S-Z16 were collected; made in house; host or cells: E. coli HCB721 (pHSe5), membrane fractions
Protocol: The reaction was initiated by adding 10 μM SAM and the reaction was allowed to proceed for another 1 h at 30 °C. […] A control experiment was performed with no addition of SAM to check the initial methylation state of PctA. The reaction was stopped by adding 2× SDS-PAGE loading buffer. The reaction products were resolved by SDS-PAGE and stained with Coomassie brilliant blue. The gel bands corresponding to PctA were excised and used for detection and quantification of methylation by nano-LC-MS/MS.
Gel slices excised from SDS-PAGE gels were destained with three washes in 100 μl of 100 mM ammonium bicarbonate in 50% acetonitrile at 37 °C for 15 min. Destained gel pieces were dried in a SpeedVac (Thermo Fisher Scientific) for 15 min. 10 mM DTT in 25 mM ammonium bicarbonate was added to cover the gel pieces and incubated at 56 °C for 1 h. After cooling to room temperature, the supernatant was replaced by 55 mM iodoacetamide in 25 mM ammonium bicarbonate followed by 1 h incubation at room temperature in darkness. Gel slices were washed with 100 μl of 25 mM ammonium bicarbonate for 10 min, and then shrunk in acetonitrile for 10 min. Acetonitrile was removed and the gel slices were dried in a SpeedVac. The dried gel slices were swollen with 20 μl of 12.5 ng µl^−1 Pierce^TM trypsin protease (MS-grade; Thermo Fisher Scientific) in 50 mM ammonium bicarbonate at 4 °C for 1 h. An additional 30 μl of 50 mM ammonium bicarbonate was supplemented, followed by overnight incubation at 37 °C. After digestion, supernatants were transferred to a new tube, and remaining peptides were extracted from the gel slices with 50 μl of 0.1% trifluoroacetic acid at 37 °C for 30 min. Combined extracts for each gel slice were dried in a SpeedVac. The dried peptide samples were resolubilized in 0.1% formic acid and analyzed in C18 reversed-phase column connected to an EASY-nLC 1000 interfaced via a Nanospray Flex ion source to an Orbitrap Fusion Tribrid mass spectrometer (Thermo Fisher Scientific). The LC mobile phase consisted of 0.1% formic acid (v/v) in water (A) and 0.1% formic acid in acetonitrile (B). […] A data-dependent Top 20 method was used with precursor MS1 scan (m/z 350–1550) acquired in the Orbitrap at a resolution of 120,000, followed by Orbitrap HCD-MS/MS and OTHCD-MS/MS of the 20 most abundant multiply charged precursors in the MS1 spectrum. MS2 spectra were acquired at a resolution of 30,000. Methylation on glutamic acid residues of PctA and phosphorylation on histidine residues of KinD were set as variable modifications. Protein identification and quantification were performed using Mascot Daemon version 2.5.1 (Matrix Science, Boston, USA) considering the specific modifications.

[4] = molecular target: T4, KinD (Bacillus subtilis, UniProt O31671); assay: in vitro kinase assay, KinD autophosphorylation (LC-MS/MS); assay type: biochemical, B. subtilis; conditions: 100 μM ATP, 30 min, 30 °C
T4 construct: The genes encoding full-length KinD and rpHK1S-Z16 were cloned with a C-terminal His6 tag into pHSe5; made in house; host or cells: E. coli BL21(DE3) ΔluxS (pHSe5), membrane fractions
Protocol: Twenty micrograms of membrane fractions containing KinD was preincubated in a 50-μl reaction system containing 50 mM Tris-HCl (pH 7.8), 2 mM DTT, 25 mM NaCl, 25 mM KCl, 5 mM MgCl2 for 10 min at 30 °C. […] A control experiment was performed without ATP to check the initial phosphorylation state of KinD. After 30 min incubation at 30 °C, products were resolved by SDS-PAGE, and the gel bands corresponding to KinD were excised and used for detection and quantification of phosphorylation by nano-LC-MS/MS.
Gel slices excised from SDS-PAGE gels were destained with three washes in 100 μl of 100 mM ammonium bicarbonate in 50% acetonitrile at 37 °C for 15 min. Destained gel pieces were dried in a SpeedVac (Thermo Fisher Scientific) for 15 min. 10 mM DTT in 25 mM ammonium bicarbonate was added to cover the gel pieces and incubated at 56 °C for 1 h. […] The dried peptide samples were resolubilized in 0.1% formic acid and analyzed in C18 reversed-phase column connected to an EASY-nLC 1000 interfaced via a Nanospray Flex ion source to an Orbitrap Fusion Tribrid mass spectrometer (Thermo Fisher Scientific). […] Protein identification and quantification were performed using Mascot Daemon version 2.5.1 (Matrix Science, Boston, USA) considering the specific modifications.

[5] = molecular target: T5, PctA-LBD D146A (Pseudomonas aeruginosa, UniProt G3XD24, D146A); assay: biochemical; assay type: binding; conditions: PctA-LBD D146A 70 μM; DPD/AI-2 700 μM
T5 construct: Amino acids 30-278 and 36-360 of PctA and TlpQ, respectively; His6 (N, cleaved yes); made in house; host or cells: E. coli BL21(DE3) (pET-28a derivative)

[6] = molecular target: LuxP; set-up: method as in PMID 18215018; conditions: established receptor LuxP; cited from earlier work
[7] = molecular target: T6, KinD-LBD (Bacillus subtilis, UniProt O31671); assay: ITC binding to KinD-LBD; set-up: species or system B. subtilis; conditions: 700 μM DPD/AI-2 into 70 μM KinD-LBD
T6 construct: the LBD of HK KinD from B. subtilis; His6 (N, cleaved yes); made in house; host or cells: E. coli BL21(DE3) (pET-28a derivative)

[8] = molecular target: T7, PctB-LBDE146D (Pseudomonas aeruginosa, UniProt Q9HW91, E146D); assay: biochemical; assay type: binding; conditions: 700 μM DPD/AI-2 into 70 μM PctB-LBD E146D
T7 construct: the dCACHE-type LBDs of PctB and PctC; His6 (N, cleaved yes); made in house; host or cells: E. coli BL21(DE3) (pET-28a derivative)
T7 sequence (Q9HW91 32-276 E146D): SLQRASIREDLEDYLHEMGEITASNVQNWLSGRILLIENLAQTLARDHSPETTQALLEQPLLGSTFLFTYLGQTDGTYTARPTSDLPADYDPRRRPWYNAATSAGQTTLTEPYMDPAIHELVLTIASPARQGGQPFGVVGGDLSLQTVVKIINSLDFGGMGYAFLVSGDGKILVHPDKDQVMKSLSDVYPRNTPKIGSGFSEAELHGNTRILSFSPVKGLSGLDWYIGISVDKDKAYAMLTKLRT

T4 sequence (O31671 whole entry): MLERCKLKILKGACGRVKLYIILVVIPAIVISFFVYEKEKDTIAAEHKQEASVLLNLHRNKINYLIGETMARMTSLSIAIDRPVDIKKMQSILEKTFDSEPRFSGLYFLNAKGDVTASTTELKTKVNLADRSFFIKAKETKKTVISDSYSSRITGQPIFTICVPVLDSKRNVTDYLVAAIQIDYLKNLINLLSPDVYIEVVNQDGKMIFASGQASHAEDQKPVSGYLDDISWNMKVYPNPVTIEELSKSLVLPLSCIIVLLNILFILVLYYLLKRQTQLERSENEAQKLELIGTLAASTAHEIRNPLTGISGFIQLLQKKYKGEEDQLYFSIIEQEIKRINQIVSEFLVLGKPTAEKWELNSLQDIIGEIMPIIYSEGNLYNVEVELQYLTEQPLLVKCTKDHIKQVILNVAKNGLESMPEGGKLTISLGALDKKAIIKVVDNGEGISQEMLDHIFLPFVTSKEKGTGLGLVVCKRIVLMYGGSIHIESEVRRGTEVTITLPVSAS
T2 sequence (G3XD24 30-278 D173A): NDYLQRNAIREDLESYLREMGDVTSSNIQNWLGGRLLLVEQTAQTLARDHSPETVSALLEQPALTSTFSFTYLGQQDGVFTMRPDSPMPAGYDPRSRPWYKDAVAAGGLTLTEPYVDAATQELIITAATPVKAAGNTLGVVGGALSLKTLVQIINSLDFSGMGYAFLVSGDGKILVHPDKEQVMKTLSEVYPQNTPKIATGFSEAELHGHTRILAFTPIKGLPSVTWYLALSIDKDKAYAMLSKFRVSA
T5 sequence (G3XD24 30-278 D146A): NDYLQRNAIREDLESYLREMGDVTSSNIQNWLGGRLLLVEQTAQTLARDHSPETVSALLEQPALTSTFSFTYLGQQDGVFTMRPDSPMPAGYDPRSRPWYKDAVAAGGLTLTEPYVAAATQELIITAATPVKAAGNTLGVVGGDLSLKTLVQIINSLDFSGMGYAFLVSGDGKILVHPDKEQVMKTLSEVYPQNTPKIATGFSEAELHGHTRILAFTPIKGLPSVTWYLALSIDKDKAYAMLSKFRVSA
T6 sequence (O31671 37-250): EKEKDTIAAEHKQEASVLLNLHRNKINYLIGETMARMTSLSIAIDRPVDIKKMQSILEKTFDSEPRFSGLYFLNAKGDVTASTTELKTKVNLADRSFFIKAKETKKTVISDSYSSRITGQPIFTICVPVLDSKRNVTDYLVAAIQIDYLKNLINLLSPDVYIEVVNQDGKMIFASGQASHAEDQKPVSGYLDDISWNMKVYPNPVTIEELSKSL
T3 sequence (G3XD24 whole entry): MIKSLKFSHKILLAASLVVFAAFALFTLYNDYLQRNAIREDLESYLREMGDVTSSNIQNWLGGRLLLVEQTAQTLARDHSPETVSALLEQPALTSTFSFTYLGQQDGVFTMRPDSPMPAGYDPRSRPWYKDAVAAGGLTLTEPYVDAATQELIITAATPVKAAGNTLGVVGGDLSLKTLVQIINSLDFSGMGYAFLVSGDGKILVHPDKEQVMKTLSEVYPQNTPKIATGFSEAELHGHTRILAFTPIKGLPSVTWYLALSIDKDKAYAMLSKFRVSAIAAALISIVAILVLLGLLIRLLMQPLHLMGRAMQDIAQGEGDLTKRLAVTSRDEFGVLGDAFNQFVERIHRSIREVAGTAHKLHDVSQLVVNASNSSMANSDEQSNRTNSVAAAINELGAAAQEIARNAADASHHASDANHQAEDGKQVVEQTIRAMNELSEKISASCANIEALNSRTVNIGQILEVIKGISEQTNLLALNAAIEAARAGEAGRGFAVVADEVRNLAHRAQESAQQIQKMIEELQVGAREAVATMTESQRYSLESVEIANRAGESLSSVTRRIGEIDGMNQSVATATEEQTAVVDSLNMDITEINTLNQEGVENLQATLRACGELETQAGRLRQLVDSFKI
T1 sequence (Q9HW93 32-279 F147Y): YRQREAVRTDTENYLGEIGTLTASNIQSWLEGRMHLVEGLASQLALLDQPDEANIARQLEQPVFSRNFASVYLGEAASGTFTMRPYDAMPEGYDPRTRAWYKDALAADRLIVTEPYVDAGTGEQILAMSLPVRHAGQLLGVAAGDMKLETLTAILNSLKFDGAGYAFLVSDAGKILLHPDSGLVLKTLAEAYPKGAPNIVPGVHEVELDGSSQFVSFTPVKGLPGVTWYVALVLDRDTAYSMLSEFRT

Structure (SMILES): CC(=O)C(=O)C(O)CO (centres unmarked) [DPD/AI-2, 4,5-dihydroxy-2,3-pentanedione]
- Kd [1]: 240 nM and 170 nM and 210 nM
- Kd [2]: 12000 nM and 14000 nM and 13000 nM and 10000 nM
- Methylation level (%) of PctA at E381 ([3]; 100 μM DPD/AI-2): 47.62% and 40.00%
- Methylation level (%) of PctA, Fig. S5a ([3]; 100 μM DPD/AI-2): 41.67% and 36.36% and 40.00%
- Methylation level (%) of PctA, Fig. S5b ([3]; 100 μM DPD/AI-2): 2.78% and 2.86% and 2.41%
- Methylation level (%) of PctA at E381 ([3]; 500 μM DPD/AI-2): 66.67% and 55.56% and 63.16%
- Methylation level (%) of PctA, Fig. S5a ([3]; 500 μM DPD/AI-2): 39.22% and 37.21% and 34.21%
- Methylation level (%) of PctA, Fig. S5b ([3]; 500 μM DPD/AI-2): 2.27% and 2.63%
- Phosphorylation level (%) of KinD ([4]; 10 μM DPD/AI-2): 27.45% and 24.59% and 21.92% and 23.68%
- Phosphorylation level (%) of KinD ([4]; 50 μM DPD/AI-2): 49.23% and 54.72% and 52.70% and 57.14%
- Kd [5]: 39000 nM and 30000 nM and 31000 nM
- Kd [6]: 160 nM
- Kd [7]: 120 nM and 160 nM and 150 nM
- Kd [8]: 220 nM and 270 nM and 230 nM

Source: publication PMC7584622, “Sensing of autoinducer-2 by functionally distinct receptors in prokaryotes” (Nature Communications, 2020)
